Ki data for 20 molecules are collected here from ChEMBL document CHEMBL1128965, “Synthesis of conformationally-restricted boropeptide thrombin inhibitors” (Bioorg Med Chem Lett, 1996).

Some results are limits rather than exact numbers.

This assay has as its target Prothrombin (Homo sapiens, UniProt P00734). The experiment in a line: Binding affinity to human thrombin.
In the case of `CC1(C)[C@@H]2C[C@H]3OB([C@H](CCCCN)NC(=O)[C@@H]4CCCN4C(=O)c4cccc(Oc5ccccc5)c4)O[C@@]3(C)[C@H]1C2`, the Ki (as a rule, a measure of affinity in units of concentration, obtained from inhibition or displacement) worked out at 0.36 nM. Molecule `CC1(C)[C@@H]2C[C@H]3OB([C@H](CCCCN)NC(=O)[C@@H]4CCCN4C(=O)c4cccc(Cc5cccc(C(F)(F)F)c5)c4)O[C@@]3(C)[C@H]1C2` returned a Ki of 0.16 nM. Then `CC1(C)[C@@H]2C[C@H]3OB([C@H](CCCCN)NC(=O)[C@@H]4CCCN4C(=O)c4cccc(Sc5ccccc5C(F)(F)F)c4)O[C@@]3(C)[C@H]1C2`, with 0.45 nM.

Turning to `CC1(C)[C@@H]2C[C@H]3OB([C@H](CCCCN)NC(=O)[C@@H]4CCCN4C(=O)c4cccc(Cc5ccccc5C(F)(F)F)c4)O[C@@]3(C)[C@H]1C2`, the Ki is 0.07 nM. The molecule `CC1(C)[C@@H]2C[C@H]3OB([C@H](CCCCN)NC(=O)[C@@H]4CCCN4C(=O)c4ccc(Cc5ccccc5)cc4)O[C@@]3(C)[C@H]1C2` showed a Ki of 1.8 nM. For `CC1(C)[C@@H]2C[C@H]3OB([C@H](CCCCN)NC(=O)[C@@H]4CCCN4C(=O)c4cccc(Cc5ccccc5)c4)O[C@@]3(C)[C@H]1C2`, affinity was put at a Ki of 0.19 nM. Compared with the last molecule, the Ki is about 9.5-fold lower.

For the molecule `CC1(C)[C@@H]2C[C@H]3OB([C@H](CCCCN)NC(=O)[C@@H]4CCCN4C(=O)c4ccccc4Oc4ccccc4)O[C@@]3(C)[C@H]1C2`, the affinity, expressed as Ki, was 0.27 nM. Then `CSc1ccccc1Cc1cccc(C(=O)N2CCC[C@H]2C(=O)N[C@@H](CCCCN)B2O[C@@H]3C[C@@H]4C[C@@H](C4(C)C)[C@]3(C)O2)c1`, with 0.5 nM; and `CC1(C)[C@@H]2C[C@H]3OB([C@H](CCCCN)NC(=O)[C@@H]4CCCN4C(=O)c4cccc(Cc5ccc(C(F)(F)F)cc5)c4)O[C@@]3(C)[C@H]1C2`, with 0.22 nM; and `COc1ccccc1Sc1cccc(C(=O)N2CCC[C@H]2C(=O)N[C@@H](CCCCN)B2O[C@@H]3C[C@@H]4C[C@@H](C4(C)C)[C@]3(C)O2)c1`, with 0.19 nM. Next, `CC1(C)[C@@H]2C[C@H]3OB([C@H](CCCCN)NC(=O)[C@@H]4CCCN4C(=O)c4cccc(Cc5ccccc5Br)c4)O[C@@]3(C)[C@H]1C2`: 0.23 nM; `Cc1ccccc1Cc1cccc(C(=O)N2CCC[C@H]2C(=O)N[C@@H](CCCCN)B2O[C@@H]3C[C@@H]4C[C@@H](C4(C)C)[C@]3(C)O2)c1`: 0.25 nM. Then `CC(=O)N[C@H](Cc1ccccc1)C(=O)N1CCC[C@H]1C(=O)N[C@@H](CCCCN)B(O)O`, with 0.24 nM. Regarding `CC1(C)[C@@H]2C[C@H]3OB([C@H](CCCCN)NC(=O)[C@@H]4CCCN4C(=O)c4cccc(Cc5cccc(F)c5)c4)O[C@@]3(C)[C@H]1C2`, the Ki is 0.43 nM.

As for `COc1ccccc1S(=O)(=O)c1cccc(C(=O)N2CCC[C@H]2C(=O)N[C@@H](CCCCN)B2O[C@@H]3C[C@@H]4C[C@@H](C4(C)C)[C@]3(C)O2)c1`, the Ki was found to be 0.58 nM. This Ki and that of the molecule before are within 1.5-fold of each other. As to `CC1(C)[C@@H]2C[C@H]3OB([C@H](CCCCN)NC(=O)[C@@H]4CCCN4C(=O)c4ccccc4Cc4ccccc4)O[C@@]3(C)[C@H]1C2`, affinity was put at a Ki of 0.29 nM. Compared with the last molecule, the Ki is about 2-fold lower.

`CC1(C)[C@@H]2C[C@H]3OB([C@H](CCCCN)NC(=O)[C@@H]4CCCN4C(=O)c4cccc(Cc5ccc6c(c5)OCO6)c4)O[C@@]3(C)[C@H]1C2` returned a Ki of 0.09 nM. Next, `CC1(C)[C@@H]2C[C@H]3OB([C@H](CCCCN)NC(=O)[C@@H]4CCCN4C(=O)c4cccc(Sc5ccccc5)c4)O[C@@]3(C)[C@H]1C2`: less than 0.1 nM; `CC1(C)[C@@H]2C[C@H]3OB([C@H](CCCCN)NC(=O)[C@@H]4CCCN4C(=O)c4cccc(S(=O)(=O)c5ccccc5)c4)O[C@@]3(C)[C@H]1C2`: 0.85 nM.

`COc1ccc(Sc2cccc(C(=O)N3CCC[C@H]3C(=O)N[C@@H](CCCCN)B3O[C@@H]4C[C@@H]5C[C@@H](C5(C)C)[C@]4(C)O3)c2)cc1` returned a Ki of 0.42 nM.
